From the NIST ThermoML archive (doi:10.1007/s10765-009-0581-7)

Assay: xn = mol fraction of the nth substance listed
Details: for surface tension liquid-gas: Ring tensiometer; for mass density: 101 kPa, Liquid

CC#N [acetonitrile] + CCCO
Details | mass density, 298.15 K [kg/m3] | mass density, 303.15 K [kg/m3] | mass density, 308.15 K [kg/m3] | mass density, 313.15 K [kg/m3] | surface tension liquid-gas, 298.15 K [mN/m] | surface tension liquid-gas, 303.15 K [mN/m] | surface tension liquid-gas, 308.15 K [mN/m] | surface tension liquid-gas, 313.15 K [mN/m]
x1 = 0.1255 | 796.74 | 792.49 | 789.47 | 783.74 | 23.6 | 23.2 | 22.8 | 22.4
x1 = 0.2452 | 794.01 | 789.62 | 786.3 | 780.62 | 23.9 | 23.5 | 23.1 | 22.7
x1 = 0.3466 | 791.7 | 787.18 | 783.62 | 777.99 | 24.2 | 23.8 | 23.4 | 23
x1 = 0.4995 | 788.21 | 783.51 | 779.56 | 774.01 | 24.9 | 24.5 | 24.2 | 23.8
x1 = 0.6449 | 784.9 | 780.02 | 775.71 | 770.23 | 25.8 | 25.4 | 25 | 24.6
x1 = 0.7492 | 782.52 | 777.52 | 772.95 | 767.52 | 26.6 | 26.2 | 25.8 | 25.4
x1 = 0.8645 | 779.89 | 774.75 | 769.89 | 764.52 | 27.5 | 27.1 | 26.7 | 26.3
x1 = 0.9101 | 778.85 | 773.66 | 768.68 | 763.34 | 27.9 | 27.5 | 27.1 | 26.8
x1 = 1 | 776.75 | 771.5 | 766.3 | 761 | 28.9 | 28.5 | 28.1 | 27.7
